This is an account of results in patent US10273313B2, “Multimeric mannosides, a process for preparing the same and their uses as a drug” (CENTRE NATIONAL DE LA RECHERCHE SCIENTIFIQUE, priority 2012, dated 2019).

Series [1] relates to CD-associated E. coli strain AIEC LF82. Put plainly: Hemagglutination inhibition (HAI) with AIEC LF82, guinea pig erythrocytes. The class given is cell-based, Escherichia coli. On the procedure:
AIEC adhesion to the gut occurs through the binding of FimH adhesins to the mannosylated glycans of intestinal cells. This scenario was first mimicked here with the highly mannosylated glycocalyx of guinea pig erythrocytes.
A two-fold dilution series of the antagonists was added to wells containing guinea pig erythrocytes and AIEC LF82 bacteria. The formation of the cross-linked network (hemagglutination) due to the interaction of the E. coli FimH adhesins with the glycocalyx of the erythrocytes was prevented at a certain concentration of inhibitors. The lowest concentration at which hemagglutination is still inhibited is defined as the inhibition titer of the antagonist. HM was included in the assay to obtain a relative inhibitory concentration (rIC) for the antagonists by dividing the inhibitory concentration (IC) of the substance of interest by the value for HM. In fact, rICs are more accurate than rough inhibition titers to compare the potency of antagonists evaluated in different assays.

For series [2], the system named is AIEC LF82 bacteria on colonic tissue from transgenic mice expressing human CEACAM6. Put plainly: Ex-vivo adhesion assay on colonic tissue of CEABAC10 mice. Also on record: species or system CEABAC10 transgenic mice. On the procedure:
E. coli strain LF82 was isolated from a chronic ileal lesion of a patient with Crohn's disease (CD). Bacteria were grown routinely in Luria-Bertani (LB) broth overnight at 37° C.
Adhesion assay of AIEC LF82 bacteria were performed using colonic tissue from transgenic mice expressing the human CEACAM6 protein (C. H. Chan, C. P. Stanners “Novel mouse model for carcinoembryonic antigen-based therapy”, Mol Ther. 2004; 9, 775-785). Briefly, 10 to 12-week-old FVB/N CEABAC10 transgenic mice were anesthetized, euthanized by cervical dislocation and colons were removed. Colons were washed twice in phosphate buffer saline (PBS) and were segmented in 4 independent loops of ≈0.6 cm. A volume of 100 μL of LF82 bacteria at 2×10^6 bacteria/mL in PBS or of a mix of LF82 bacteria+D-mannose (1 μmol and 10 μmol) or compound 13 (0.1 μmol and 0.01 μmol) were injected into the loops. Loops were incubated 1 h at 37° C. in an atmosphere containing 5% of CO2, and then opened and washed 4 times in PBS. Tissues were homogenized, appropriately diluted and plated onto Luria-Bertani agar plates containing ampicillin (100 μg/mL) and erythromycin (20 μg/mL) to select AIEC LF82 bacteria.
Entire colons from CEABAC10 mice were collected and washed two times with PBS. The colon was divided in 4 isolated loops and 100 μL of a bacterial suspension containing […] bacteria/mL with or without inhibitory compounds were injected into the loops. D-mannose was tested at a dose of 1 and 10 μmol and monovalent 13 was tested at a dose of 0.01 and 0.1 μmol. After a 1 h-period of incubation, samples were extensively washed and homogenized to numerate adherent bacteria. Bacterial adhesion was expressed as percentages of residual adhesion (100% corresponds to the adhesion in absence of any compound).

Series [3] concerns the target T1, FimH (Escherichia coli, UniProt P08191). The class given is binding. The settings on record: competitive ELISA. Here is the method: Journal of the American Society for Mass Spectrometry, 2009. […] Tested compounds were added to wells following with FimH treatment.
Plates were coated with 100 μl of 10 mg/ml solution of RNAse-B in 100 mM carbonate/bicarbonate buffer pH 9.6. […] 2 h. Then washed three times with 10 mM PBS containing 0.05% Tween-20. […] Wells were washed three times with 10 mM PBS+0.05% Tween-20. 100 μl of anti-body conjugated to horseradish peroxidase (1:5000) was added in buffer and incubated for 1 h at room temperature. Then washed three times with 10 mM PBS+0.05% Tween-20. Added 100 μl of TMB and incubated in dark for 2-5 min. The reaction was stopped with 100 μl/well 1N sulfuric acid. Plate absorbance was analyzed at 450 nm using microplate reader.
Target sequence in this assay (P08191 22-300): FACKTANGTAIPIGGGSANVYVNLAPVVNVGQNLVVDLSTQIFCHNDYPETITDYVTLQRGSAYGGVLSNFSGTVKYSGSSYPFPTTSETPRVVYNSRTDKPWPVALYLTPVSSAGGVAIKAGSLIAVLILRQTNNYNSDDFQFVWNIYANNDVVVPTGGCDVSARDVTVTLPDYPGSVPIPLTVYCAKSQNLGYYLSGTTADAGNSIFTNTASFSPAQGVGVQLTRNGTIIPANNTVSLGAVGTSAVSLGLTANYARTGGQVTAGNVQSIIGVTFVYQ
(An ELISA detects its analyte on a solid surface through an enzyme-linked reagent.)

For a further series, the system named is human Jurkat T-cell line. Put plainly: Toxicity of 13 towards Jurkat T-cells. The class given is cell-based. To be noted: 100 nM.
Another series deals with Caco-2 cells. Description: Blockage of cytotoxic effect of microparticle-FimH, flow cytometry. The class given is cell-based. The settings on record: Caco2. An excerpt: It was shown that upon binding of FimH adhesin to uroplakin UPIIIa its cytoplasmic tail undergoes phosphorylation on a specific threonine residue by casein kinase II, followed by an elevation of intracellular calcium triggering apoptosis (Thumbikat, P.; Berry, R. E.; Zhou, G.; Billips, B. K.; Yaggie, R. E.; Zaichuk, T.; Sun, T.-T.; Schaeffer, A. J.; Klumpp, D. J. PLoS Pathog 2009, 5, e1000415). […] It is needed to mentioned that according to our observations that Caco2 cells, unlike human blood cells, (Bilyy R. O.; Shkandina, T.; Tomin, A.; Muñoz, L E.; Franz, S.; Antonyuk, V.; Kit, Y. Y.; Zirngibl, M.; Fürnrohr, B. G.; Janko, C.; Lauber, K.; Schiller, M.; Schett, G.; Stoika, R. S.; Herrmann, M., J. Biol. Chem. 2012, 287, 496-503) are very quickly converted from apoptotic to secondary necrotic (PI-positive). […]
Cell viability was assessed by a trypan blue exclusion test. […]
Apoptotic cells were identified by using annexin V-FITC and PI, according to the manufacturer's protocol. […] Cells were then resuspended in a solution of annexin V-FITC and PI prepared in Ringer buffer, incubated 30 min at 4° C. in the dark, and analyzed on a FACS scan flow cytometer (BD Biosciences). A minimum of 10,000 events per sample was recorded. […]

The subject of series [4] is AIEC strain LF82 adhesion to T84 intestinal epithelial cells. Put plainly: Adhesion assay on T84 cells with thiazolylaminomannosides (Example 22.3). The class given is cell-based, Escherichia coli. Here is the method: T84 Intestinal Epithelial cells (overexpressing the receptor CEACAM6) were beforehand incubated for 1 h with the synthetic thiazolylaminomannosides 6-20 (examples 3-17) at different concentrations. Each compound was tested four times at concentrations of 0.1, 1, 10 and 100 μM.
The cells were then infected in the presence of inhibitory compounds by the AIEC strain of reference LF82 for 3 hours at a multiplicity of infection of 10 bacteria to a cell. After 3 h of incubation, the monolayer was washed and the number of AIEC bacteria associated with cells was counted. The level of adhesion of AIEC LF82 strain in the presence of inhibitors (residual adhesion) was expressed relatively to the level of adherence in the absence of any treatment (considered 100%) (FIG. 10).

The next series relates to UTI89 E. coli. Put plainly: Inhibition of haemagglutination (Example 19). The class given is cell-based, Escherichia coli. To be noted: two-fold dilution from 1 mM. On the procedure: Interaction of E. coli FimH adhesins with the glycocalyx of guinea pig erythrocytes forms a cross-linked network into the wells. Glycoconjugates added in a two-fold dilution series prevents the agglutination reaction. The inhibition titer is defined as the lowest concentration of the glycoconjugate at which haemagglutination is still inhibited. UTI89 E. coli were grown statically overnight in LB at 37° C., washed three times in ice-cold phosphate-buffered saline and resolubilized. A two-fold dilution of glycoconjugates was prepared in 25 μL 20 mM HEPES pH 7.4 with 150 mM NaCl, starting from 1 mM as the highest concentration. The bacterial solution (25 μL) was added to the two-fold dilution series of the compound. Finally 50 μl of guinea pig red blood cells, washed in buffer and diluted to 5%, were added to a final 100 μL and left on ice for 30 min. before read-out. Due to serial dilutions, the maximal error is ±one well, or a factor two (FIG. 2).

The test system of a further series is human Jurkat cells. Description: Prevention of FimH-induced apoptosis of Jurkat cells (24 h). Here is the method:
Eventually, we tested the ability of mannose-based inhibitors to prevent the induction of cell death of human Jurkat cells under the treatment with FimH. We cultures cells with the indicated compound for 24 h and counter percentage of viable (AnV−/Pi−), apoptotic (AnV+/Pi−) and necrotic cells (AnV+/PI+). […] 2. […] 3.
Apoptosis was induced by UV-B irradiation with 90 mJ/cm^2, apoptosis of human PMN cells was induced by 24 h aging. To quantify the rate of apoptosis, cells were analyzed by flow cytometry or fluorescent microscopy. Amongst other features, apoptosis is characterized by blebbing of the cellular membrane, leading to a decrease in the forward scatter (FSC) and an increase in the sideward scatter (SSC). For detection of phosphatidylserine (PS) exposure on the cell surface staining with FITC conjugated annexin V (Böhringer, Mannheim, Germany) in combination with propidium iodide (PI) (AxV/PI) was performed. 200.000 cells were stained for 30 minutes at 4° C. with 200 ng of AxV-FITC and 500 ng propidium iodide (PI) in 500 μl Ringer's solution [Nicoletti, Migliorati, Pagliacci, Grignani and Riccardi, A rapid and simple method for measuring thymocyte apoptosis by propidium iodide staining and flow cytometry. J Immunol Methods, 1991. 139.271-9]. The samples were immediately analyzed by flow cytometry of fluorescent microscopy.

Series [5] concerns the target T1, FimH. Description: Isothermal titration calorimetry of compound 6. The class given is binding. On the procedure:
For compound 6 (example 3), the enthalpy, the affinity equilibrium constant Ka and the molar ratio have moreover been measured using ITC. Integrated heat effects were analyzed by nonlinear regression using a single-site binding model (Origin 7.0). The experimental data fitted to a theoretical titration curve gave the association constant (Ka), the enthalpy of binding (ΔH) and the molar ratio n. The entropic contribution to the affinity and the change in Gibbs free energy (ΔG) have been calculated from the equation ΔG=ΔH−TΔS=−RTlnKa, where T is the absolute temperature and R is the molar gas constant (8.314 J·mol−1·K−1).
Target sequence in this assay (P08191 22-179): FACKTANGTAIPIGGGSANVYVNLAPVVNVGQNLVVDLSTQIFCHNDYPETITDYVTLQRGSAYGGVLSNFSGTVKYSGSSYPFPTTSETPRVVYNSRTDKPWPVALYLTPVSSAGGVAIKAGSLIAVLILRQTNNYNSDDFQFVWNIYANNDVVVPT
(In general: ITC needs no label: the signal is the heat of the interaction.)

For the next series, the target named is T2, lectin domain of FimH (Escherichia coli, UniProt P08191).
T2 construct: The lectin domain of FimH was expressed as described previously and purified at pH 4.0; made in house
Description: Surface plasmon resonance solution competition assay. The class given is binding. To be noted: solution affinity. On the procedure: The affinity of the compounds was first evaluated and then measured in a surface plasmon resonance solution competition assay. The lectin domain of FimH was expressed as described previously and purified at pH 4.0 in 50 mM HCOOH on a SPFF (sulfopropyl fast flow) ion exchange column (GE Healthcare). A CM5 sensor chip (Biacore, GE Healthcare) has been coated with a layer of amino-functionalized monovalent heptyl mannoside to 60 RU (response units) and the kinetics of FimH binding to the sensor chip has been determined. All data collection have been performed in HBS buffer complemented with 3 mM EDTA and 0.01% Tween20. Regeneration was done with a single 10 s injection of 100 mM NaOH in water.
The solution affinity provided by the Biacore software uses the equation (B−A−Kd)/2+(0.25*(A+B+Kd)^2−A*B)^0.5, with B presenting the uninhibited concentration of FimH, and A the variable compound concentration.
In general terms: In SPR one partner is held on a chip, and binding of the other changes the refractive index at the surface.

T2 sequence (P08191 22-179): as above

As for `Cc1nc(-c2cnccn2)sc1C(=O)c1cnc(N[C@H]2OC(CO)[C@@H](O)[C@H](O)C2O)s1` (mixture of isomers) [Compound 13, 2-(α-D-mannopyranosyl)amino-5-(4-methyl-2-(pyrazin-2-yl)thiazole-5-carbonyl)thiazole], the “Inhibitory potency in HAI (in words)” value in series [1] is “second most potent compound”. Besides, the “Efficiency relative to D-mannose” value in [2] stood at 100 fold. The Bacterial adhesion entry in series [2] (0.1 μmol, 1 h) was “significant decrease”. Also, the “Level of inhibition compared to the HM reference” value on FimH [3] is recorded as “significantly higher level of inhibition”. For the same molecule, the “Concentration blocking FimH binding towards oligomannose glycans” value at FimH [3] (RNAseB substrate) was 5 nM. Moreover, in the series on human Jurkat T-cell line, the “Toxicity towards human blood cells (Jurkat T-cell line)” value is “nontoxic”. Further, the “Effect on amount of dead cell in population” value with Caco-2 cells (100 nM alone) is “no significant effect”. In addition, the “Dead cells in population” value in the series on Caco-2 cells (co-treatment with microparticles-FimH and 100 nM) amounted to 16.5%. In addition, the figures for the Residual adhesion in series [4] (0.1 μM) and in series [4] (10 μM) were 57.6% and 2.12%, respectively. For the same molecule, the “Inhibitory effect on adhesion” value in [4] (100 nM) is reported as “significant inhibitory effect”. In addition, the “AIEC remaining attached to the cells (residual adhesion)” value in [4] (1 μM) was found to be 14%. For the same molecule, the “rIC relative to HM” value in series [4] (dose-dependent inhibition similar to HM at 100-fold lower concentration) is reported as approximately 0.01.

`CC(=O)c1cnc(N[C@H]2O[C@H](CO)[C@@H](O)[C@H](O)[C@@H]2O)s1` [Compound 6, 5-acetyl-2-((α-D-mannopyranosyl)amino)thiazole]: the “Inhibitory potency in HAI (in words)” value in [1] is on record as “less potent than HM”. In the series with UTI89 E. coli, the “Inhibitory potency in haemagglutination (FIG. 2)” value is “equivalent to the one for HM”. Moreover, the “Prevention of apoptosis induction by FimH” value in the series with human Jurkat cells (500 nM) is “effectively prevented apoptosis induction”. For the same molecule, the “Toxicity to Jurkat cells” value with human Jurkat cells (tested concentrations, 24 h) is “not toxic”. In addition, the Kd stood at 197 nM on FimH [5], 216 nM at lectin domain of FimH (measurement 1) and 220 ± 7.71 nM on lectin domain of FimH (measurement 2).

A word on the Kd: it is the concentration at which binding is half-saturated. Read a low Kd as a tighter complex.
